{"source": "PubChem BioAssay (NCI)", "experiment_in_all_cases": "NCI anticancer screen, dose series, 384-well format", "key": {"UACC-257 melanoma": {"tested_on": "UACC-257 melanoma"}, "HL-60(TB) leukemia": {"tested_on": "HL-60(TB) leukemia"}, "RPMI-8226 leukemia": {"tested_on": "RPMI-8226 leukemia"}, "MDA-MB-231 breast": {"tested_on": "MDA-MB-231 breast"}, "UO-31 renal": {"tested_on": "UO-31 renal"}, "HOP-62 NSCLC": {"tested_on": "HOP-62 NSCLC"}, "OVCAR-4 ovarian": {"tested_on": "OVCAR-4 ovarian"}, "ACHN renal": {"tested_on": "ACHN renal"}, "RXF 393 renal": {"tested_on": "RXF 393 renal"}, "UACC-62 melanoma": {"tested_on": "UACC-62 melanoma"}, "NCI-H322M lung": {"tested_on": "NCI-H322M lung"}, "CCRF-CEM leukemia": {"tested_on": "CCRF-CEM leukemia"}, "A498 renal": {"tested_on": "A498 renal"}}, "note": "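The concentration for 50% growth inhibition is given as GI50. TGI: concentration producing complete growth inhibition.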", "data": [{"compound": "N#Cc1cnc(Nc2cc(NC[C@H]3CNCCO3)c(C(F)(F)F)cn2)cn1", "values": [{"measurement": "GI50", "setting": "UACC-257 melanoma", "value": 17.6, "unit": "µM"}, {"measurement": "TGI", "setting": "UACC-257 melanoma", "value": 31.8, "unit": "µM"}, {"measurement": "GI50", "setting": "HL-60(TB) leukemia", "value": 0.625, "unit": "µM"}, {"measurement": "TGI", "setting": "HL-60(TB) leukemia", "value": 1.76, "unit": "µM"}, {"measurement": "GI50", "setting": "RPMI-8226 leukemia", "value": 1.21, "unit": "µM"}, {"measurement": "TGI", "setting": "RPMI-8226 leukemia", "value": 5.28, "unit": "µM"}, {"measurement": "GI50", "setting": "MDA-MB-231 breast", "value": 16.8, "unit": "µM"}, {"measurement": "TGI", "setting": "MDA-MB-231 breast", "value": 42.3, "unit": "µM"}, {"measurement": "GI50", "setting": "UO-31 renal", "value": 0.588, "unit": "µM"}, {"measurement": "TGI", "setting": "UO-31 renal", "value": "> 100", "unit": "µM"}, {"measurement": "GI50", "setting": "HOP-62 NSCLC", "value": 3.75, "unit": "µM"}, {"measurement": "TGI", "setting": "HOP-62 NSCLC", "value": 16.8, "unit": "µM"}, {"measurement": "GI50", "setting": "OVCAR-4 ovarian", "value": 1.86, "unit": "µM"}, {"measurement": "TGI", "setting": "OVCAR-4 ovarian", "value": 34.4, "unit": "µM"}, {"measurement": "GI50", "setting": "ACHN renal", "value": 0.305, "unit": "µM"}, {"measurement": "TGI", "setting": "ACHN renal", "value": 1.22, "unit": "µM"}, {"measurement": "GI50", "setting": "RXF 393 renal", "value": 0.272, "unit": "µM"}, {"measurement": "TGI", "setting": "RXF 393 renal", "value": 0.715, "unit": "µM"}, {"measurement": "GI50", "setting": "UACC-62 melanoma", "value": 7.66, "unit": "µM"}, {"measurement": "TGI", "setting": "UACC-62 melanoma", "value": 21, "unit": "µM"}, {"measurement": "GI50", "setting": "NCI-H322M lung", "value": 9.8, "unit": "µM"}, {"measurement": "TGI", "setting": "NCI-H322M lung", "value": 32.4, "unit": "µM"}, {"measurement": "GI50", "setting": "CCRF-CEM leukemia", "value": 0.333, "unit": "µM"}, {"measurement": "TGI", "setting": "CCRF-CEM leukemia", "value": 0.976, "unit": "µM"}, {"measurement": "GI50", "setting": "A498 renal", "value": 0.234, "unit": "µM"}, {"measurement": "TGI", "setting": "A498 renal", "value": 0.531, "unit": "µM"}]}]}
